# Test results from PMC6608980, “The lectin-specific activity of Toxoplasma gondii microneme proteins 1 and 4 binds Toll-like receptor 2 and 4 N-glycans to regulate innate immune priming” (PLoS Pathogens, 2019).
# What was measured:
# rMIC4 = target: T1, rMIC4 (Toxoplasma gondii, UniProt Q9XZH7); experiment: microplate sugar-inhibition of binding to coated asialofetuin, antibody detection; settings: 25 °C, 2 h; competes with asialofetuin glycans at the carbohydrate-recognition domain
# T1 construct: gene MIC4
# rMIC1 = target: T2, rMIC1 (Toxoplasma gondii, UniProt A0A125YMF8); experiment: microplate sugar-inhibition of binding to coated fetuin, antibody detection; settings: 25 °C, 2 h; competes with fetuin glycans at the carbohydrate-recognition domain
# T2 construct: gene MIC1
# T2 sequence (A0A125YMF8 entry or part of it): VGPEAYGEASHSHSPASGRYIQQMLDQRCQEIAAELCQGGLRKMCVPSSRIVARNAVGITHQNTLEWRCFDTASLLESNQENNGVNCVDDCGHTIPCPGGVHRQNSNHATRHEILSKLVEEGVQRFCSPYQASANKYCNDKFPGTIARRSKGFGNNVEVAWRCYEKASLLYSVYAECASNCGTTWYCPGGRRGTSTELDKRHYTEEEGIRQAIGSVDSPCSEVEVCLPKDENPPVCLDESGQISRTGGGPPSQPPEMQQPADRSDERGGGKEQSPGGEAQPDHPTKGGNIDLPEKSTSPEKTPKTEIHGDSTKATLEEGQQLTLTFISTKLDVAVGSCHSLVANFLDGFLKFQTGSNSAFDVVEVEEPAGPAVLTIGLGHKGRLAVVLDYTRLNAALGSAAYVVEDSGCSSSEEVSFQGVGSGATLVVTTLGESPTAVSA
# T1 sequence (Q9XZH7 26-580): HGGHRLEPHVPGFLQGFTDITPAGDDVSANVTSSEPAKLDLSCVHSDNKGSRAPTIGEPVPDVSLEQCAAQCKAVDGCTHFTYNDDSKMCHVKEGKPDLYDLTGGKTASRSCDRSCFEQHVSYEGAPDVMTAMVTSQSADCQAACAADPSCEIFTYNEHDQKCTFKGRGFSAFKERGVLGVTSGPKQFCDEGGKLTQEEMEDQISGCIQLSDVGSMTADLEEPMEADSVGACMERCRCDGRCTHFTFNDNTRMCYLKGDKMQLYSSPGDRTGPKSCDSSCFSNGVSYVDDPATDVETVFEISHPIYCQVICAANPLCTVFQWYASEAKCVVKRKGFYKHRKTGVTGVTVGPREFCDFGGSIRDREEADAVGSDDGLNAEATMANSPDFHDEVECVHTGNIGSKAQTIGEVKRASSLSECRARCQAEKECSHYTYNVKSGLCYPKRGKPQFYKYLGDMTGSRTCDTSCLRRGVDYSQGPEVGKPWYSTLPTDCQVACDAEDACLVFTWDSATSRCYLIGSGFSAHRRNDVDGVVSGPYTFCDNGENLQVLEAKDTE
SMILES,"microplate sugar-inhibition of binding to coated asialofetuin, antibody detectio (rMIC4)","microplate sugar-inhibition of binding to coated fetuin, antibody detection (rMIC1)"
CC(=O)N[C@H]1C(O)O[C@H](CO)[C@@H](O)[C@@H]1O[C@@H]1O[C@H](CO)[C@H](O)[C@H](O)[C@H]1O (some centres unmarked) [lacto-N-biose],lacto-N-biose inhibited the binding of rMIC4 to asialofetuin,–
CC(=O)N[C@H]1[C@H]([C@H](O)[C@H](O)CO)O[C@@](O[C@H]2[C@@H](O)[C@@H](CO)O[C@@H](O[C@H]3[C@H](O)[C@@H](O)C(O)O[C@@H]3CO)[C@@H]2O)(C(=O)O)C[C@@H]1O (stereo partly drawn) [α(2–3)-sialyllactose],–,Sialyllactose inhibited the binding of rMIC1 to fetuin
